# In patent US10471050B2, “2-OXO-1,2-dihydropyridine-3,5-dicarboxamide compounds as bromodomain inhibitors” (GlaxoSmithKline Intellectual Property (No. 2) Limited, priority 2015, dated 2019):
# Tests used:
# BRD4 BD2 over BRD4 BD1 = assay: Calculation of selectivity for BRD4 BD2 over BRD4 BD1 from the TR-FRET assays; format: binding, Human; details: 1 log unit = 10 fold, 2 log unit = 100 fold
# Procedure: Bromodomain binding was assessed utilising a time resolved fluorescent resonance energy transfer (TR-FRET) competition assay. To enable this approach a known, high affinity, pan-BET interacting small molecule was labelled with Alexa Fluor® 647, which is a far-red-fluorescent dye (Reference Compound X). Reference Compound X acts as a reporter of bromodomain binding and is the acceptor fluorophore component of the TR-FRET pair. Europium chelate, conjugated to an anti-6*His antibody, was utilised as the donor fluorophore in the TR-FRET pair. The anti-6*His antibody binds selectively to a six Histidine purification epitope added to the amino-terminus of each of the BET tandem bromodomain protein constructs used in this study. […]
# The competition of the compounds of formula (I) with Reference Compound X for binding to the BET family (BRD2, BRD3, BRD4 and BRDT) was assessed using protein truncates spanning both bromodomain 1 (BD1) and bromodomain 2 (BD2). […] Utilising a Fluorescence Polarisation approach, binding affinities for each of the single and double mutants for Reference Compound X were determined. […] In the TR-FRET competition assay, Reference Compound X is used at a concentration that is equivalent to the Kd for the non-mutated bromodomain, which ensures that no binding at the mutated bromodomain is detected. […]
# BRD4 BD2 = target: T1, BRD4 BD2 (Homo sapiens, UniProt O60885, Y97A); assay: BRD4 BD2 TR-FRET competition assay; format: binding; details: single mutant tandem BRD4, read-out: pIC50 in the BRD4 BD2 assay (converted)
# T1 construct: BRD4 (1-477) (Y97A) and (Y390A); made in house; host or cells: E. coli (pET15b vector)
# Procedure: Bromodomain binding was assessed utilising a time resolved fluorescent resonance energy transfer (TR-FRET) competition assay. To enable this approach a known, high affinity, pan-BET interacting small molecule was labelled with Alexa Fluor® 647, which is a far-red-fluorescent dye (Reference Compound X). Reference Compound X acts as a reporter of bromodomain binding and is the acceptor fluorophore component of the TR-FRET pair. Europium chelate, conjugated to an anti-6*His antibody, was utilised as the donor fluorophore in the TR-FRET pair. […] A TR-FRET signal is generated when the donor and acceptor fluorophores are in close proximity, between 20-80 Å, which is enabled in this assay by binding of Reference Compound X to the bromodomain protein.
# In order to generate a TR-FRET signal, donor fluorophore is excited by a laser at λ337 nm, which subsequently leads to emission at λ618 nm. If the acceptor fluorophore is in close proximity then energy transfer can occur, which leads to emission of Alexa Fluor® 647 at λ665 nm. In the presence of competitor compound, Reference Compound X can be displaced from binding to the bromodomain. If displacement occurs, the acceptor fluorophore is no longer in proximity to the donor fluorophore, which prevents fluorescent energy transfer and, subsequently, a loss of Alexa Fluor® 647 emission at λ665 nm.
# The competition of the compounds of formula (I) with Reference Compound X for binding to the BET family (BRD2, BRD3, BRD4 and BRDT) was assessed using protein truncates spanning both bromodomain 1 (BD1) and bromodomain 2 (BD2). In order to monitor differential binding to either BD1 or BD2, single residue mutations of key tyrosines to alanine were made in the acetyl lysine binding pockets. To validate this approach, a double residue mutant tandem domain protein was produced for each of the BET family members. Utilising a Fluorescence Polarisation approach, binding affinities for each of the single and double mutants for Reference Compound X were determined.
# Final purification was completed by Superdex 200 prep grade size exclusion column. Purified protein was stored at −80° C. in 20 mM HEPES pH 7.5 and 100 mM NaCl.
# All assay components were dissolved in an assay buffer composing of 50 mM HEPES pH7.4, 50 mM NaCl, 5% Glycerol, 1 mM DTT and 1 mM CHAPS. Reference Compound X was diluted, in assay buffer containing 20 nM single mutant, tandem bromodomain protein, to a concentration equivalent to 2*Kd for this bromodomain. The solution containing bromodomain and Reference Compound X was added to dose response dilutions of test compound or DMSO vehicle (a maximum of 0.5% DMSO is used in this assay) in Greiner 384 well black low volume microtitre plates and subsequently incubated for 30 minutes at room temperature. An equal volume of 3 nM of anti-6*His Europium chelate was added to all wells, followed by a further 30 minute incubation at room temperature. TR-FRET was detected using a Perkin Elmer Multimode plate reader, by exciting the donor fluorophore at λ337 nm and subsequently, after a delay of 50 μsecs, measuring emission of the donor and acceptor fluorophores at λ615 nm and λ665 nm, respectively. In order to control these assays, 16 replicates each of uninhibited (DMSO vehicle) and inhibited (10*IC50 concentrations of Example 11 of WO 2011/054846A1) TR-FRET assays were included on every microtitre plate.
# cA four parameter curve fit of the following form was then applied: y=a+((b−a)/(1+(10^x/10^c)^d)
# Where ‘a’ is the minimum, ‘b’ is the Hill slope, ‘c’ is the pIC50 and ‘d’ is the maximum.
structure (smiles),measurement,setting,value
"CNC(=O)c1cc(C(=O)NCCCC(=O)O)cn(Cc2ccccc2)c1=O [Example 44, 4-(1-Benzyl-5-(methylcarbamoyl)-6-oxo-1,6-dihydropyridine-3-carboxamido)butanoic acid]",selectivity for BRD4 BD2 over BRD4 BD1 (BRD4 BD2 pIC50 - BRD4 BD1 pIC50),BRD4 BD2 over BRD4 BD1,< 1 log unit
same,IC50,BRD4 BD2,100 to 1000 nM
